Measurements taken from patent publication US20060183802A1, “Compositions and methods for treating amyotrophic lateral sclerosis (ALS)” (priority 2004, published 2006).
≈ marks a conversion by molar mass, not a printed value.

Columns and labels:
cardiomyopathic hamsters = conditions: dietary administration; cited from earlier work
SOD = assay: In vitro oxidative aggregation of SOD in presence of orotate; format: biochemical, human
From the text: The scope of the current study that led to the discovery of anti-aggregation effect of orotate was based the inventor's aggregation model involving the open dimers (FIG. 9) as discussed in Example 2.

[1] = system: Cu/Zn superoxide dismutase; conditions: rat liver, dietary administration; cited from earlier work
[2] = according to MSDS; cited from earlier work
mouse models = conditions: dietary administration; cited from earlier work
[3] = system: SOD (wild type and A4V, G85R and G37R mutants); assay: Copper/H2O2-induced oxidative aggregation of demetallated SOD after Cys-111 modification, monitored by light scattering; format: biochemical, human
Method: Unmodified SOD aggregation. SOD aggregation of SOD with an umodified Cys-111 residue was achieved by mixing 10 μM SOD with 0.8 mM copper sulfate (CuSO4) and 10 mM hydrogen peroxide (H2O2) in 20 mM Tris at 37° C. (pH 7.4). SOD aggregation of SOD modified at the Cys-111 residue.
Modified (Blocked […] Residue) aggregation. Treatment with iodoacetate and DTNB was carried out at 0.73 mg/ml demetallated SOD, 20 mM Tris, 20 mM phosphate with 10 mM modifying reagent in each at pH 7.4 and room temperature for one hour. In the case of DTNB treatment, both protein solution and the buffer were nitrogen fused prior to the reaction. Modified SOD samples were then dialyzed against 20 mM Tris buffer at pH 7.8 in room temperature. All of the modified SOD samples were prepared fresh just before inducing oxidation with copper (0.8 mM) and hydrogen peroxide (10 mM).
Kinetic Studies of modified and unmodified SOD aggregation. To monitor the kinetics of aggregation, the SOD solution was equilibrated in a quartz cuvette at 37° C. for 5 min within the sample chamber of a Hitachi F-4500 fluorimeter, at which point a freshly made solution containing the CuSO4, H2O2, and Tris was added. Using a small stir bar, the solution was mixed for 5 s, and the light scattered at a 90° angle was immediately monitored for 1 h at an excitation and emission wavelengths of 350 with 2.5 nm slit width. […]

O=C(O)c1cc(=O)[nH]c(=O)[nH]1 [orotic acid]
conditions of cardiomyopathic hamsters (cardiomyopathic hamsters): improve
anti-aggregation activity across SOD variants (SOD; different variants of SOD with different extent of dimer opening): different level of anti-aggregation activity in different variants of SOD
effect on in vitro oxidative aggregation of SOD (SOD; in vitro oxidative aggregation): inhibition of in vitro oxidative aggregation
Cu/Zn superoxide dismutase mRNA level [1]: reduction
SOD activity [1]: corresponding reduction
solubility in water [2]: 7 mM (≈ 1090 µg/mL)
memory and synaptic long-term potentiation (mouse models): improve memory and synaptic long-term potentiation

O=C(O)CI [iodoacetate]
aggregation of SOD after treatment with sulfhydryl blocking reagent ([3]; pH 7.4): inhibited

O=C(O)c1cc(SSc2ccc([N+](=O)[O-])c(C(=O)O)c2)ccc1[N+](=O)[O-] [DTNB, dithionitro benzoic acid]
aggregation of SOD after treatment with sulfhydryl blocking reagent ([3]; 10 mM modifying reagent, pH 7.4, one hour, then 0.8 mM copper, 10 mM H2O2, WT, A4V, G85R, G37R apo SOD): inhibited
